The values that follow come from patent US12344610B2, “APOL1 inhibitors and methods of use” (Maze Therapeutics, Inc., priority 2022, dated 2025).

SMILES strings stand for the structures. Where two headings read alike, the source gives them in different places.

The term EC50 denotes the concentration needed to bring the measured effect to its halfway point.

What all share (assay type): cell-based
Holding throughout (settings): geometric mean of at least 2 assay runs, † = single assay run

Assay [1] relates to Trypanosoma brucei Lister 427 VSG221 with APOL1 G2 recombinant protein. Put plainly: APOL1 G2 trypanosome cell rescue assay (Example B5). The method, boiled down: (§1)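 Viability read by CellTiter-Glo luminescence after 20 h co-incubation (37° C, 5% CO2) of 250 trypanosomes/well in modified HMI-9 with test compound (duplicate 11-point, 2-fold dilutions, 0.4% DMSO) and APOL1 protein, […]. Protein: mature residues 28-398, E. coli inclusion-body refolded, tag cleaved, in DDM.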

Assay [2] relates to HEK293 cells overexpressing APOL1 G2. Put plainly: APOL1 G2 HEK293 cell rescue assay (reversal of cell death caused by overexpression of APOL1). An outline of the steps:
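Each compound tested in duplicate wells on one plate per run, with values usually the geometric mean across at least two runs on different days, occasionally from one run only. Read-out: concentration giving half-maximal rescue of APOL1 G2 overexpression-induced death of HEK293 cells.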

In assay [3] the test system is Trypanosoma brucei Lister 427 VSG221 with APOL1 G1 recombinant protein. The assay can be described thus: APOL1 G1 trypanosome cell rescue assay (Example B5). An outline of the steps:
as §1

Setting [4] is: Trypanosoma brucei, 20 h, read-out: APOL1 G2 Trypanosome Rescue EC50, Trypanosoma brucei Lister 427 VSG221 with APOL1 G2 recombinant protein, 20 hours, CellTiter-Glo.
Setting [5] is: Trypanosoma brucei, 20 h, read-out: APOL1 G1 Trypanosome Rescue EC50, Trypanosoma brucei Lister 427 VSG221 with APOL1 G1 recombinant protein, 20 hours, CellTiter-Glo.
The mark [6] stands for this setting: Homo sapiens, HEK293, HEK293 overexpressing APOL1 G2.
Where [7] appears, read: read-out: APOL1 G2 Trypanosome Rescue EC50, Trypanosoma brucei Lister 427 VSG221 with APOL1 G2 recombinant protein, 20 hours, CellTiter-Glo.
Setting [8] is: read-out: APOL1 G1 Trypanosome Rescue EC50, Trypanosoma brucei Lister 427 VSG221 with APOL1 G1 recombinant protein, 20 hours, CellTiter-Glo.

On to `CC(COc1ccc2c(c1)CCC(=O)N2C)N1CCC2(CC1)C(=O)Nc1ccc(Cl)cc12` (single isomer, unassigned) [Compound 200], for which the results for the EC50 in assay [1] (setting [4]), in assay [2] (HEK293 overexpressing APOL1 G2) and in assay [3] (setting [5]) were 72.4 nM, 87.2 nM and 192 nM, respectively.

`CC(COc1ccc2c(c1)CCC(=O)N2C)N1CCC2(CC1)C(=O)Nc1ccc(C#N)cc12` (single isomer, unassigned) [Compound 203, (S) or (R)-1′-{1-[(1-methyl-2-oxo-1,2,3,4-tetrahydroquinolin-6-yl)oxy]propan-2-yl}-2-oxo-1,2-dihydrospiro[indole-3,4′-piperidine]-5-carbonitrile]: the concentration for a half-maximal effect (EC50) in assay [1] (setting [4]) is 227 nM; in assay [2] (HEK293 overexpressing APOL1 G2), 187 nM; in assay [3] (setting [5]), 583 nM.

For `C[C@@H](COc1ccc(S(C)(=O)=O)c(C(F)F)c1)N1CCC2(CC1)C(=O)Nc1ccc(Cl)cc12` (single isomer, unassigned) [Compound 210], the 50% effective concentration (EC50) in assay [1] (setting [4]) stood at 21.8 nM; in assay [2] (setting [6]), 63.3 nM; in assay [3] (setting [5]), 71.1 nM.

Consider `C[C@@H](COc1ccc2c(cnn2C)c1)N1CCC2(CC1)C(=O)Nc1ccc(Cl)cc12` (single isomer, unassigned) [Compound 211], for which the values for the 50% effective concentration (EC50) in assay [1] (setting [4]), in assay [2] (setting [6]) and in assay [3] (setting [5]) were 159 nM, 138 nM and 527 nM, respectively.

`C[C@@H](COc1ccc(S(C)(=O)=O)c(C(F)F)c1)N1CCC2(CC1)C(=O)Nc1ccc(C#N)cc12` (single isomer, unassigned) [Compound 212]: the half-maximal effective concentration (EC50) in assay [1] (setting [4]) stood at 32.1 nM; in assay [2] (setting [6]), 81.4 nM; in assay [3] (setting [5]), 103 nM.

Consider `CS(=O)(=O)c1ccc(OCCN2CCC3(CC2)C(=O)Nc2ccc(Cl)cc23)cc1C(F)CF` (single isomer, unassigned) [Compound 218, 5-chloro-1′-(2-{3-[(1S or 1R)-1,2-difluoroethyl]-4-methanesulfonylphenoxy}ethyl)-1,2-dihydrospiro[indole-3,4′-piperidin]-2-one], for which the concentration giving a half-maximal response (EC50) was found to be 31.6 nM in assay [1] (setting [7]), 25.6 nM in assay [2] (setting [6]) and 108 nM in assay [3] (setting [8]).

Take `CS(=O)(=O)c1ccc(OCCN2CCC3(CC2)C(=O)Nc2ccc(Cl)cc23)cc1C(F)CF` (single isomer, unassigned) [Compound 219, 5-chloro-1′-(2-{3-[(1R or 1S)-1,2-difluoroethyl]-4-methanesulfonylphenoxy}ethyl)-1,2-dihydrospiro[indole-3,4′-piperidin]-2-one]: the EC50 in assay [1] (setting [7]) worked out at 10.5 nM; in assay [2] (HEK293 overexpressing APOL1 G2) it was 26.3 nM; in assay [3] (setting [8]) it was 39 nM.

Take `CS(=O)(=O)c1ccc(OCCN2CCC3(CC2)C(=O)Nc2ccc(C#N)cc23)cc1C(F)CF` (single isomer, unassigned) [Compound 221, 1′-(2-{3-[(1S or 1R)-1,2-difluoroethyl]-4-methanesulfonyl-phenoxy}ethyl)-2-oxo-1,2-dihydrospiro [indole-3,4′-piperidine]-5-carbonitrile]: the concentration for a half-maximal effect (EC50) is 29.5 nM in assay [1] (setting [4]), 47.4 nM in assay [2] (HEK293 overexpressing APOL1 G2) and 129 nM in assay [3] (setting [5]).

On to `CC(COc1ccc(C2(S(C)(=O)=O)COC2)cc1)N1CCC2(CC1)C(=O)Nc1ccc(C#N)cc12` (single isomer, unassigned) [Compound 263, (S) or (R)-1′-{1-[4-(3-methanesulfonyloxetan-3-yl)phenoxy]propan-2-yl}-2-oxo-1,2-dihydrospiro[indole-3,4′-piperidine]-5-carbonitrile], for which the 50% effective concentration (EC50) in assay [1] (setting [4]) was 95.3 nM; in assay [2] (HEK293 overexpressing APOL1 G2), 198 nM; in assay [3] (setting [5]) it was 320 nM.

For the molecule `CN1C(=O)C2(CCN(CCOc3ccc(C4(S(C)(=O)=O)CC(O)C4)cc3)CC2)c2cc(C(F)F)ccc21` (single isomer, unassigned) [Compound 278, 5-(difluoromethyl)-1-methyl-1′-(2-{4-[(cis) or (trans)-3-hydroxy-1-methanesulfonylcyclobutyl]phenoxy}ethyl)-1,2-dihydrospiro[indole-3,4′-piperidin]-2-one], the EC50 in assay [1] (setting [7]) was 25.5 nM; in assay [2] (HEK293 overexpressing APOL1 G2) it was 23 nM; in assay [3] (setting [8]) it was 111 nM.

`CS(=O)(=O)C1(c2ccc(OCCN3CCC4(CC3)C(=O)Nc3ccc(C(F)F)cc34)cc2)CC(O)C1` (single isomer, unassigned) [Compound 281, 5-(difluoromethyl)-1′-(2-{4-[(cis) or (trans)-3-hydroxy-1-methanesulfonylcyclobutyl]phenoxy}ethyl)-1,2-dihydrospiro[indole-3,4′-piperidin]-2-one]: the concentration for a half-maximal effect (EC50) in assay [1] (setting [7]) worked out at 28.1 nM; in assay [2] (HEK293 overexpressing APOL1 G2) it was 56 nM; in assay [3] (setting [8]) it was 101 nM.

In the case of `CC(O)c1ncc(OCCN2CCC3(CC2)C(=O)Nc2ccc(Cl)cc23)cn1` (single isomer, unassigned) [Compound 285, 5-chloro-1′-[2-({2-[(1S) or (1R)-1-hydroxyethyl]pyrimidin-5-yl}oxy)ethyl]-1,2-dihydrospiro[indole-3,4′-piperidin]-2-one], the half-maximal effective concentration (EC50) in assay [1] (setting [4]) worked out at 212 nM; in assay [2] (setting [6]), 200 nM; in assay [3] (setting [5]) it was 749 nM.

With `CC(O)c1ncc(OCCN2CCC3(CC2)C(=O)Nc2ccc(Cl)cc23)cn1` (single isomer, unassigned) [Compound 286, 5-chloro-1′-[2-({2-[(1R) or (1S)-1-hydroxyethyl]pyrimidin-5-yl}oxy)ethyl]-1,2-dihydrospiro[indole-3,4′-piperidin]-2-one], the EC50 came out at 175 nM in assay [1] (setting [7]), 181 nM in assay [2] (HEK293 overexpressing APOL1 G2) and 629 nM in assay [3] (setting [8]).

Turning to `CC(O)c1ncc(OCCN2CCC3(CC2)C(=O)Nc2ccc(C(F)F)cc23)cc1C(F)(F)F` (single isomer, unassigned) [Compound 287, 5-(difluoromethyl)-1′-[2-({6-[(1S) or (1R)-1-hydroxyethyl]-5-(trifluoromethyl)pyridin-3-yl}oxy)ethyl]-1,2-dihydrospiro[indole-3,4′-piperidin]-2-one], the concentration for a half-maximal effect (EC50) in assay [1] (setting [4]) came out at 13.9 nM; in assay [2] (setting [6]), 33.5 nM; in assay [3] (setting [5]) it was 50 nM.

Consider `CC(O)c1ncc(OCCN2CCC3(CC2)C(=O)Nc2ccc(C(F)F)cc23)cc1C(F)(F)F` (single isomer, unassigned) [Compound 288, 5-(difluoromethyl)-1′-[2-({6-[(1R) or (1S)-1-hydroxyethyl]-5-(trifluoromethyl)pyridin-3-yl}oxy)ethyl]-1,2-dihydrospiro[indole-3,4′-piperidin]-2-one], for which the figures for the concentration for a half-maximal effect (EC50) in assay [1] (setting [7]), in assay [2] (HEK293 overexpressing APOL1 G2) and in assay [3] (setting [8]) were 9.75 nM, 34.1 nM and 36.1 nM, respectively.

On to `CC[C@]1(O)C[C@H](N2C(=O)CCc3cc(OCCN4CCC5(CC4)C(=O)Nc4ccc(Cl)cc45)cnc32)C1` (single isomer, unassigned) [Compound 290, 5-chloro-1′-[2-({7-oxo-8-[(trans)-3-ethyl-3-hydroxycyclobutyl]-5,6,7,8-tetrahydro-1,8-naphthyridin-3-yl}oxy)ethyl]-1,2-dihydrospiro[indole-3,4′-piperidin]-2-one], for which the EC50 in assay [1] (setting [4]) was 24 nM; in assay [2] (setting [6]), 18.2 nM; in assay [3] (setting [5]), 69.2 nM.

For the molecule `CC(O)c1ncc(OCCN2CCC3(CC2)C(=O)Nc2ccc(Cl)cc23)cc1C(F)(F)F` (single isomer, unassigned) [Compound 291, 5-chloro-1′-[2-({6-[(1R) or (1S)-1-hydroxyethyl]-5-(trifluoromethyl)pyridin-3-yl}oxy)ethyl]-1,2-dihydrospiro[indole-3,4′-piperidin]-2-one], the results for the EC50 in assay [1] (setting [7]), in assay [2] (setting [6]) and in assay [3] (setting [8]) were 26.5 nM, 26.4 nM and 79.7 nM, respectively.

For `CC(O)c1ncc(OCCN2CCC3(CC2)C(=O)Nc2ccc(Cl)cc23)cc1C(F)(F)F` (single isomer, unassigned) [Compound 292, 5-chloro-1′-[2-({6-[(1S) or (1R)-1-hydroxyethyl]-5-(trifluoromethyl)pyridin-3-yl}oxy)ethyl]-1,2-dihydrospiro[indole-3,4′-piperidin]-2-one], the concentration for a half-maximal effect (EC50) in assay [1] (setting [7]) amounted to 10.8 nM; in assay [2] (HEK293 overexpressing APOL1 G2), 23.2 nM; in assay [3] (setting [8]), 39.6 nM.

Take `O=C1CCc2cc(OCCN3CCC4(CC3)C(=O)Nc3ccc(Cl)cc34)cnc2N1[C@H]1C[C@@](O)(C2CC2)C1` (single isomer, unassigned) [Compound 297, 5-chloro-1′-[2-({7-oxo-8-[(trans)-3-cyclopropyl-3-hydroxycyclobutyl]-5,6,7,8-tetrahydro-1,8-naphthyridin-3-yl}oxy)ethyl]-1,2-dihydrospiro[indole-3,4′-piperidin]-2-one]: the half-maximal effective concentration (EC50) is 31.5 nM in assay [1] (setting [4]), 31.8 nM in assay [2] (setting [6]) and 85.4 nM in assay [3] (setting [5]).

As to `C[C@]1(O)C[C@H](N2C(=O)CCc3cc(OCCN4CCC5(CC4)C(=O)Nc4ccc(Cl)cc45)cnc32)C1` (single isomer, unassigned) [Compound 307, 5-chloro-1′-[2-({7-oxo-8-[(trans)-3-hydroxy-3-methylcyclobutyl]-5,6,7,8-tetrahydro-1,8-naphthyridin-3-yl}oxy)ethyl]-1,2-dihydrospiro[indole-3,4′-piperidin]-2-one], the EC50 is 27.2 nM in assay [1] (setting [4]), 20.4 nM in assay [2] (setting [6]) and 79.7 nM in assay [3] (setting [5]).
